Data from PMC5908784, “Extracellular loops 2 and 3 of the calcitonin receptor selectively modify agonist binding and efficacy” (Biochemical Pharmacology, 2018).
Residue numbers refer to the chain shown, from its start. pKi: −log10 of the molar value. Where no end group is shown, it is not given here.

Legend:
Assay in all cases: Homologous whole cell competition binding
Settings in all cases: homologous competition of 125I-sCT(8-32), whole cells, mean ± S.E.M., SEM
hCTR K366A = biological target: T1, hCTR K366A (Homo sapiens, UniProt P30988, K366A)
T1 construct: c-Myc (N); expressed in transfected cells
T1 sequence (P30988 25-474 K366A): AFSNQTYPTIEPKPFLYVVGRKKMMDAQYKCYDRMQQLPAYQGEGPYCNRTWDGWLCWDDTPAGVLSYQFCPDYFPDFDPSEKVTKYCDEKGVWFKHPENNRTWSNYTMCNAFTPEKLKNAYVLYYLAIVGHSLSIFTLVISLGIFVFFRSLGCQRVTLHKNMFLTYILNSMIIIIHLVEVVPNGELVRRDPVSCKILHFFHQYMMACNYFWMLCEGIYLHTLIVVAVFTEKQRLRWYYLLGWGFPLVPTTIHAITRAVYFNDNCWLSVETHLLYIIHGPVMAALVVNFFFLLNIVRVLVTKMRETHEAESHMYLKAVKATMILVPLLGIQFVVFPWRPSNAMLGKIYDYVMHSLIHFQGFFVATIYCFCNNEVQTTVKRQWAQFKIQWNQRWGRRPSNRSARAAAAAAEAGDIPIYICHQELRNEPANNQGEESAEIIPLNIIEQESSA
Outline: (§1)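 Gamma counting of bound ^125I-sCT(8-32) after overnight 4 °C incubation of intact cells with tracer (two levels, 25–100 pM) plus unlabelled sCT(8-32) dilutions. Data normalized to total and 1 μM sCT(8-32) nonspecific binding; pKi via Cheng-Prusoff.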

hCTR R281A = biological target: T2, hCTR R281A (Homo sapiens, UniProt P30988, R281A)
T2 construct: expressed in transfected cells
T2 sequence (P30988 25-474 R281A): T1 sequence (P30988 25-474 K366A) with R257A, A342K
Outline: as §1

hCTR T280A = biological target: T3, hCTR T280A (Homo sapiens, UniProt P30988, T280A)
T3 construct: expressed in transfected cells
T3 sequence (P30988 25-474 T280A): T1 sequence (P30988 25-474 K366A) with T256A, A342K
Outline: as §1

hCTR N288A = biological target: T4, hCTR N288A (Homo sapiens, UniProt P30988, N288A)
T4 construct: expressed in transfected cells
T4 sequence (P30988 25-474 N288A): T1 sequence (P30988 25-474 K366A) with N264A, A342K
Outline: as §1

pKi (hCTR K366A): 9.71 | pKi (hCTR R281A): 9.07 | pKi (hCTR T280A): 9.61 | pKi (hCTR N288A): 9.63
Substance: VLGKLSQELHKLQTYPRTNTGSGTP-NH2 [sCT(8-32)]
